Results on one compound are retold here after patent US10092620B2, “Uses of cyclic peptides for treating and preventing atherosclerosis” (THE SCRIPPS RESEARCH INSTITUTE, priority 2013, dated 2018).

One data set has as its system LDLr-null mice. Briefly: in vivo efficacy study: plasma total cholesterol in high-fat-fed LDLr-null mice. Set-up: species or system mouse. An excerpt: Encouraged by the above findings, we carried out a 2-week pilot study to determine the effect of 1 on plasma total cholesterol levels. As an animal model, we employed the LDLr-null mouse, which has a human-like lipoprotein profile and is a leading animal model for studying hypercholesterolemia and atherogenesis. Considering that the abiotic nature of cyclic D,L-α-peptides renders them highly resistant to proteolysis, we chose to conduct this pilot in vivo efficacy study via the more convenient oral route of administration. Thus, the cyclic D,L-α-peptide was administered orally in the drinking water for two weeks (each mouse drank ˜0.5 mg peptide per day, or ˜25 mg/kg/day) to mice maintained on a high-fat diet.
In vivo efficacy study: LDL receptor-null (LDLr^−/−) mice on a C57BL/6J background were initially purchased from Jackson Laboratories (Bar Harbor, Me.) and were bred in house. The mice were weaned at 4 weeks of age and were fed ad libitum a standard chow diet (Harlan Teklad 7019) until they were 10-weeks old, when they were switched to a high-fat Western diet (WD) containing 15.8% (wt/wt) fat, 1.25% (wt/wt) cholesterol, and no cholate (Harlan Teklad 94059). At the time that the WD was started, the test cyclic peptide was added to the drinking water at a high dose of 180 μM (200 μg/mL) or a low dose of 18 μM (20 μg/mL) and the mice (female, n=8 per dosing group) were continued on WD for 10 weeks. The lyophilized peptide was easily dissolved in PBS (pH 7.4) containing 1% sucrose, resulting in a clear solution. The drinking water solution was replaced with fresh solution every day. A control group of eight mice (female, n=8) were fed WD with vehicle (PBS with 1% sucrose) drinking water. The mice consumed approximately 2.5 mL of water per day per mouse, and there was no significant difference in water or food consumption between groups.
Effect of cyclic peptides on plasma total cholesterol: The mice were bled after two weeks of treatment and at the time of harvest (10 weeks). The blood (200 μL) was collected after an overnight fast (14-16 h) by retro-orbital puncture into a heparinized capillary tube at two weeks, or by cardiac puncture into EDTA anti-coagulant coated tubes at the time of harvest (10 weeks). Plasma was separated from whole blood immediately by centrifugation of the blood samples at 5000 rpm for 10 min at 4° C., and was then stored at −80° C. Plasma total cholesterol (TC) was measured using an enzymatic colorimetric method kit (Amplex® red cholesterol assay kit, No. A12216, Life Technologies) according to the manufacturer's instructions.
In addition, several peptides were administered orally to mice at a 35 mg/kg dose (unless otherwise noted) in the drinking water for two weeks. The female LDLr-null mice maintained on a high-fat diet were provided with peptide-treated 1% sucrose/PBS or 1% sucrose/PBS alone as the drinking water ad libitum. Cholesterol levels were then determined. The data are shown in FIG. 7 as a scatter plot along with mean±SD. p values were determined by the one-way ANOVA test with a post hoc Tukey-Kramer test.

Data set [1] can be described thus: plasma liver enzyme activities (ALT, AST). The data set is classed as in vivo, mouse. Particulars: oral ~25 mg/kg/day, 10 weeks, LDLr-null mice. The method, then:
Plasma liver enzyme activities: At the time of harvest (10 week), blood (˜0.5 mL) was collected after an overnight fast (14-16 h) by cardiac puncture into EDTA anti-coagulant coated tubes, and centrifuged at 4° C. for 10 min×5000 rpm. Plasma samples were stored at −80° C. until analysis. Plasma alanine aminotransferase (ALT) and aspartate aminotransferase (AST) concentrations were measured using Infinity ALT (GPT) and AST (GOT) liquid stable reagents, respectively, which is a colorimetric kinetic assay (Thermo Scientific). Assays were performed in accordance to the manufacturer's recommendations, adjusting the reagent volumes (20 μL plasma+200 μL reagent, 0.69-cm light pathlength of the solution in the well) for analysis of samples in 96-well flat bottom microplate format.

Data set [2] is described as follows: plasma concentration during oral administration in drinking water. Particulars: LDLr-null (LDLr−/−), mouse, orally in the drinking water at 25 mg/kg/day, limit of detection 1 μM. The data set is classed as in vivo. An excerpt: We continued oral administration of the peptide to the animals for an additional eight weeks (ten weeks total for the study) to determine how the peptide would impact the development of atherosclerotic lesions (see FIG. 6 for treatment schedule). At the completion of the 10-week study, the total plasma cholesterol level in the peptide-treated animals was 30% lower than in control animals (FIG. 2c). Moreover, an analysis of the whole aorta lesion area and the aortic sinus lesion volume indicated reductions in atherosclerotic lesions of 26% and 50%, respectively (FIGS. 2c, d). […] When administered orally in the drinking water at 25 mg/kg/day, the plasma concentration of compound 1 was below the 1 μM limit of detection (data not shown).
LC-MS SIM quantitation of peptide concentration: Cyclic peptide concentrations were quantified by using reverse-phase HPLC coupled with mass spectrometry. The electrospray ionization mass spectrometry measurements were carried out in the positive ionization mode using a single quadrupole mass spectrometer (Hewlett Packard HP 1100 MSD series). […] For quantitative calibration, standard curves were established using mouse EDTA-anticoagulated plasma spiked with various concentrations of the peptide. […]

Non-standard residues stand in square brackets, D forms with d. Residues, ends and D or L forms follow the SMILES beside them.

Turning to `CC(C)C[C@@H]1NC(=O)[C@@H](Cc2c[nH]c3ccccc23)NC(=O)[C@H](CCCNC(=N)N)NC(=O)[C@@H](CCC(=O)O)NC(=O)[C@H](CCC(N)=O)NC(=O)[C@@H](CCC(=O)O)NC(=O)[C@H](CCCNC(=N)N)NC(=O)[C@@H](Cc2c[nH]c3ccccc23)NC1=O` [SEQ ID NO:1, c[wLwReQeR]] (cyclo([dW]L[dW]R[dE]Q[dE]R)), in the data set on LDLr-null mice (10-fold lower dose ~2.5 mg/kg/day in drinking water, after two weeks), the “reduction in plasma cholesterol levels compared to control animals” value came out at 17%. Besides, in the data set on LDLr-null mice (oral in drinking water ~25 mg/kg/day, 2 weeks, female LDLr-null mice, high-fat diet), the “reduction in total plasma cholesterol compared to control animals” value stood at 55%. Further, in the data set on LDLr-null mice (oral in drinking water, LDLr-null mice, high-fat diet for 10 weeks, vs. controls), the “reduction of total plasma cholesterol levels (overview statement)” value is listed as “up to 55%”. For the same compound, the “total plasma cholesterol level lower than in control animals” value with LDLr-null mice (oral ~25 mg/kg/day, 10 weeks, LDLr-null mice, high-fat diet) came to 30%. In the data set with LDLr-null mice (~2.5 mg/kg/day in drinking water, completion of 10-week study), the “plasma cholesterol vs control (in words)” value is listed as “no significant differences”. For the same compound, in data set [1], the “liver enzyme ALT, difference between groups” value was “No differences” and the “liver enzyme AST, difference between groups” value is reported as “No differences”. Further, the level at time molar in data set [2] is < 1000 nM.
